Assay results: patent US20170360761A1, “Selective Inhibition of HDAC6 and HDAC8, and Methods of Use Thereof” (Reaction Biology Corp., priority 2016, published 2017)

Key:
Format in all cases: cell-based
[1] = tested on: U266 cells; assay: MTS cell viability assay, U266 cells; details: Homo sapiens, U-266, 72 hours incubation
Description: (§1) About 2000-5000 of U266 cells, REH cells, K562 cells, KMS-11 cells, RPMI-8226 cells and MM. 1S cells were incubated with RBC-2008 in 384 well assay plates at 37° C., 5% CO2 for 72 hours. An amount of 5 μl of CellTiter 96® AQueous One Solution Reagent (MTS assay reagent) from Promega was added to each well and incubated for 3 hours. Absorbance at 492 nm was recorded by Envision Multilabel Reader. The IC50 curves were plotted and the IC50 values were calculated using the GraphPad Prism 4 program based on sigmoidal dose-response equation. […] 1S cells respectively (FIG. 8).

[2] = tested on: REH cells; assay: MTS cell viability assay, REH cells; details: Homo sapiens, 72 hours incubation
Description: as §1

[3] = tested on: K562 cells; assay: MTS cell viability assay, K562 cells; details: Homo sapiens, 72 hours incubation
Description: The effects of RBC-2008 on the viability of human tumor cell were assessed in an MTS assay. K562 cells were incubated with RBC-2008 in 384 well assay plates at 37° C., 5% CO2 for 72 hours. 5 μl of CellTiter 96® AQueous One Solution Reagent (MTS assay reagent) from Promega was added to each well and incubated for 3 hours. Absorbance at 492 nm was recorded using an Envision Multilabel Reader. The IC50 curves were plotted and the IC50 values were calculated using the GraphPad Prism 4 program based on a sigmoidal dose-response equation (FIG. 5).
as §1

[4] = tested on: KMS-11 cells; assay: MTS cell viability assay, KMS-11 cells; details: Homo sapiens, 72 hours incubation
Description: as §1

[5] = tested on: RPMI-8226 cells; assay: MTS cell viability assay, RPMI-8226 cells; details: Homo sapiens, 72 hours incubation
Description: as §1

[6] = tested on: MM. 1S cells; assay: MTS cell viability assay, MM. 1S cells; details: Homo sapiens, MM1.S, 72 hours incubation
Description: as §1

IC50 [1]: 14.5 µM
IC50 [3]: 13.1 µM
IC50 [5]: 3.8 µM
Compound: O=C(NO)c1ccc(Cn2sc3ccccc3c2=O)cc1 [RBC-2008]
IC50 [2]: 1.8 µM
IC50 [4]: 2.5 µM
IC50 [6]: 2.1 µM
